According to the supplement of paper PMC10307832:

Tests used:
Experiment in all cases: relative viability (nuclei count vs DMSO), 5 days (fraction); higher = more cells survive
Cediranib + Olaparib = compound: COc1cc2c(Oc3ccc4[nH]c(C)cc4c3F)ncnc2cc1OCCCN1CCCC1 [Cediranib] + O=C(c1cc(Cc2n[nH]c(=O)c3ccccc23)ccc1F)N1CCN(C(=O)C2CC2)CC1 [Olaparib] (partner 8 µM)
In short: (§1)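 After 5 days of treatment, lung cancer cells in 1536-well plates were fixed and stained in a single step (final 0.05% Triton X-100, 1% formaldehyde, 1 ug/ml Hoechst) and their nuclei counted on 4× images. Treatment had been applied by pin tool the day after seeding as one drug alone or as a fixed anchor-drug dose with five library-drug doses (not always all listed) in √10 steps. Relative viability is the nuclei count of treated wells divided by that of vehicle wells, and values are medians of duplicate plates.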

Decitabine + Trametinib = compound: Nc1ncn([C@H]2C[C@H](O)[C@@H](CO)O2)c(=O)n1 [Decitabine] + CC(=O)Nc1cccc(-n2c(=O)n(C3CC3)c(=O)c3c(Nc4ccc(I)cc4F)n(C)c(=O)c(C)c32)c1 [Trametinib] (partner 0.02 µM)
In short: as §1

Decitabine + Olaparib = compound: Nc1ncn([C@H]2C[C@H](O)[C@@H](CO)O2)c(=O)n1 [Decitabine] + O=C(c1cc(Cc2n[nH]c(=O)c3ccccc23)ccc1F)N1CCN(C(=O)C2CC2)CC1 [Olaparib] (partner 8 µM)
In short: as §1

Cediranib + Pemetrexed = compound: COc1cc2c(Oc3ccc4[nH]c(C)cc4c3F)ncnc2cc1OCCCN1CCCC1 [Cediranib] + Nc1nc2[nH]cc(CCc3ccc(C(=O)N[C@@H](CCC(=O)O)C(=O)O)cc3)c2c(=O)[nH]1 [Pemetrexed] (partner 0.2 µM)
In short: as §1

Cell Line | relative viability (Cediranib + Olaparib; first compound 0.04 µM) | relative viability (Cediranib + Olaparib; first compound 0.4 µM) | relative viability (Cediranib + Olaparib; first compound 1.265 µM) | relative viability (Cediranib + Olaparib; first compound 4 µM) | relative viability (Decitabine + Trametinib; first compound 0.04 µM) | relative viability (Decitabine + Trametinib; first compound 0.1265 µM) | relative viability (Decitabine + Trametinib; first compound 0.4 µM) | relative viability (Decitabine + Trametinib; first compound 1.265 µM) | relative viability (Decitabine + Trametinib; first compound 4 µM) | relative viability (Decitabine + Olaparib; first compound 0.04 µM) | relative viability (Decitabine + Olaparib; first compound 0.1265 µM) | relative viability (Decitabine + Olaparib; first compound 0.4 µM) | relative viability (Decitabine + Olaparib; first compound 1.265 µM) | relative viability (Decitabine + Olaparib; first compound 4 µM) | relative viability (Cediranib + Pemetrexed; first compound 0.04 µM) | relative viability (Cediranib + Pemetrexed; first compound 0.1265 µM) | relative viability (Cediranib + Pemetrexed; first compound 0.4 µM) | relative viability (Cediranib + Pemetrexed; first compound 1.265 µM) | relative viability (Cediranib + Pemetrexed; first compound 4 µM) | relative viability (Cediranib + Olaparib; first compound 0.1265 µM)
NCI-H3122 | 0.702 | 0.577 | 0.601 | 0.651 | 0.213 | 0.208 | 0.243 | 0.167 | 0.218 | 0.34 | 0.307 | 0.225 | 0.201 | 0.206 | 0.227 | 0.238 | 0.191 | 0.203 | 0.216 | 
COR-L 105 | 0.737 | 0.715 | 0.707 | 0.687 | 0.411 | 0.461 | 0.451 | 0.429 | 0.383 | 0.609 | 0.546 | 0.524 | 0.505 | 0.403 | 1.11 | 1.08 | 1.06 | 1.08 | 1.15 | 0.657
BEN | 1.11 | 1.05 | 1.13 | 1.04 | 1.1 | 0.947 | 0.772 | 0.558 | 0.622 | 0.666 | 0.595 | 0.457 | 0.43 | 0.409 | 0.921 | 0.549 | 0.693 | 0.501 | 0.786 | 0.613
NCI-H1915 | 0.246 | 0.263 | 0.289 | 0.249 | 0.233 | 0.223 | 0.218 | 0.192 | 0.184 | 0.173 | 0.169 | 0.142 | 0.124 | 0.145 | 0.655 | 0.74 | 0.448 | 0.516 | 0.446 | 0.251
NCI-H650 | 0.331 | 0.423 | 0.405 | 0.583 | 0.717 | 0.561 | 0.418 | 0.319 | 0.259 | 0.196 | 0.198 | 0.203 | 0.123 | 0.152 | 0.862 | 0.569 | 0.955 | 0.978 | 1.08 | 0.282
NCI-H1650 | 0.825 | 0.771 | 0.707 | 0.845 | 0.369 | 0.642 | 0.536 | 0.326 | 0.287 | 0.509 | 0.367 | 0.259 | 0.2 | 0.207 | 0.394 | 0.364 | 0.38 | 0.349 | 0.384 | 0.801
NCI-H2009 | 0.637 | 0.676 | 0.694 | 0.669 | 0.227 | 0.255 | 0.229 | 0.181 | 0.252 | 0.475 | 0.261 | 0.322 | 0.215 | 0.293 | 1.08 | 0.914 | 0.957 | 1.04 | 0.999 | 0.698
COR-L23 | 0.429 | 0.291 | 0.377 | 0.309 | 0.374 | 0.452 | 0.321 | 0.219 | 0.23 | 0.166 | 0.181 | 0.177 | 0.143 | 0.119 | 0.203 | 0.209 | 0.2 | 0.214 | 0.202 | 0.333
NCI-H460 | 0.53 | 0.403 | 0.424 | 0.362 | 0.173 | 0.229 | 0.214 | 0.109 | 0.13 | 0.176 | 0.118 | 0.0739 | 0.0563 | 0.0657 | 0.0716 | 0.0662 | 0.0685 | 0.0585 | 0.0931 | 0.411
NCI-H522 | 0.685 | 0.678 | 0.69 | 0.646 | 0.718 | 0.714 | 0.547 | 0.537 | 0.513 | 0.544 | 0.564 | 0.544 | 0.548 | 0.47 | 1.16 | 0.713 | 1.14 | 0.863 | 0.995 | 0.631
LCLC-103H | 0.797 | 0.739 | 0.749 | 0.658 | 0.659 | 0.714 | 0.771 | 0.623 | 0.688 | 0.688 | 0.69 | 0.498 | 0.491 | 0.742 | 0.502 | 0.477 | 0.514 | 0.427 | 0.475 | 0.836
HCC-827 | 0.466 | 0.661 | 0.617 | 0.646 | 0.222 | 0.378 | 0.322 | 0.257 | 0.344 | 0.146 | 0.279 | 0.218 | 0.182 | 0.205 | 0.31 | 0.235 | 0.231 | 0.259 | 0.259 | 0.62
NCI-H322M | 0.857 | 0.618 | 0.783 | 0.762 | 0.508 | 0.453 | 0.6 | 0.457 | 0.486 | 0.641 | 0.684 | 0.646 | 0.47 | 0.383 | 0.64 | 0.684 | 0.592 | 0.648 | 0.572 | 0.757
NCI-H1666 | 0.737 | 0.719 | 0.696 | 0.726 | 0.785 | 0.873 | 0.713 | 0.783 | 0.836 | 0.65 | 0.698 | 0.723 | 0.619 | 0.651 | 0.889 | 0.962 | 0.898 | 0.912 | 0.841 | 0.716
NCI-H1793 | 0.953 | 0.762 | 0.718 | 1.13 | 0.399 | 0.407 | 0.463 | 0.339 | 0.35 | 0.455 | 0.307 | 0.281 | 0.19 | 0.212 | 0.822 | 0.991 | 0.693 | 0.568 | 1.14 | 1.07
NCI-H1437 | 0.662 | 0.615 | 0.599 | 0.627 | 0.444 | 0.412 | 0.404 | 0.337 | 0.342 | 0.435 | 0.416 | 0.381 | 0.268 | 0.246 | 0.33 | 0.299 | 0.289 | 0.334 | 0.337 | 0.614
